# Reference: the supplement of paper PMC10307832
# Experiments:
# Test in all cases: relative viability (nuclei count vs DMSO), 5 days (fraction); higher = more cells survive
# [1] = compound: CC1=CC(=NN1)NC2=CC(=NC(=N2)/C=C/C3=CC=CC=C3)N4CCN(CC4)C + CCNC(=O)c1noc(-c2cc(C(C)C)c(O)cc2O)c1-c1ccc(CN2CCOCC2)cc1 [Luminespib] (partner 0.01 µM)
# How it was run: (§1)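 Relative viability divides the nuclei count in treated wells by that in vehicle wells. Lung cancer cell lines were seeded in 1536-well plates, dosed by pin tool the next day, and fixed and stained after 5 days in one step with final 0.05% Triton X-100, 1% formaldehyde and 1 ug/ml Hoechst. Dosing was a single drug or a fixed anchor-drug dose plus five library-drug doses (not always all listed) in √10 steps, and values are medians of duplicate plates imaged at 4×.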
# [2] = compound: CC(C)C[C@H](NC(=O)[C@H](Cc1ccccc1)NC(=O)c1cnccn1)B(O)O [Bortezomib] + COc1cc2c(Oc3ccc(NC(=O)C4(C(=O)Nc5ccc(F)cc5)CC4)cc3F)ccnc2cc1OCCCN1CCOCC1 [Foretinib] (partner 0.25 µM)
# How it was run: as §1
# [3] = compound: CC1=CC(=NN1)NC2=CC(=NC(=N2)/C=C/C3=CC=CC=C3)N4CCN(CC4)C + Cc1nc(NC(=O)N2CCC[C@H]2C(N)=O)sc1-c1ccnc(C(C)(C)C(F)(F)F)c1 [Alpelisib] (partner 2 µM)
# How it was run: as §1
# [4] = compound: CC(C)C[C@H](NC(=O)[C@H](Cc1ccccc1)NC(=O)c1cnccn1)B(O)O [Bortezomib] + C[C@@H](Oc1cc(-c2cnn(C3CCNCC3)c2)cnc1N)c1c(Cl)ccc(F)c1Cl [Crizotinib] (partner 1 µM)
# How it was run: as §1
Cell Line,relative viability ([1]; first compound 0.08 µM),relative viability ([1]; first compound 0.253 µM),relative viability ([1]; first compound 0.8 µM),relative viability ([1]; first compound 2.53 µM),relative viability ([1]; first compound 8 µM),relative viability ([2]; first compound 0.0002 µM),relative viability ([2]; first compound 0.000632 µM),relative viability ([2]; first compound 0.002 µM),relative viability ([2]; first compound 0.006325 µM),relative viability ([2]; first compound 0.02 µM),relative viability ([3]; first compound 0.08 µM),relative viability ([3]; first compound 0.253 µM),relative viability ([3]; first compound 0.8 µM),relative viability ([3]; first compound 2.53 µM),relative viability ([3]; first compound 8 µM),relative viability ([4]; first compound 0.0002 µM),relative viability ([4]; first compound 0.002 µM),relative viability ([4]; first compound 0.006325 µM),relative viability ([4]; first compound 0.02 µM),relative viability ([4]; first compound 0.000632 µM)
LU99A,0.254,0.235,0.192,0.197,0.161,0.887,0.721,0.812,0.755,0.227,0.459,0.514,0.324,0.157,0.129,0.592,0.561,0.274,0.153,
LXF-289,0.658,0.755,0.672,0.33,0.104,0.98,0.964,0.991,0.127,0.0671,1.07,1.06,0.919,0.199,0.0577,0.809,0.896,0.0729,0.0698,0.795
NCI-H23,0.183,0.206,0.197,0.212,0.205,0.895,0.972,0.861,0.166,0.14,0.55,0.859,0.704,0.265,0.12,,0.417,0.128,0.0919,0.491
NCI-H322M,0.8,1.06,0.639,0.326,0.246,0.894,,0.773,0.654,0.327,0.716,0.792,0.757,0.436,0.204,0.977,0.99,0.985,0.36,
NCI-H358,0.35,0.303,0.261,0.206,0.0878,0.538,0.647,0.642,0.0816,0.0663,0.934,0.821,0.539,0.142,0.153,0.63,0.503,0.126,0.113,0.56
NCI-H441,0.471,0.466,0.409,0.31,0.142,0.801,0.987,0.563,0.188,0.168,0.632,0.578,0.484,0.157,0.121,0.584,0.29,0.135,0.129,0.716
NCI-H460,0.0265,0.0399,0.0277,0.0233,0.0124,0.983,1.03,1.13,0.115,0.0294,0.388,0.581,0.183,0.0086,0.0052,0.979,0.927,0.0481,0.0102,0.832
NCI-H520,0.25,0.269,0.186,0.195,0.242,0.871,0.773,0.58,0.184,0.148,0.891,0.937,0.892,0.498,0.166,0.913,0.894,0.102,0.102,0.759
NCI-H596,1.04,0.927,0.777,0.402,0.2,0.88,0.892,0.613,0.17,0.138,0.5,0.577,0.565,0.367,0.121,0.98,1.02,0.224,0.182,0.957
NCI-H647,0.308,0.267,0.104,0.172,0.0506,0.904,1.3,1.25,0.0379,0.0377,0.927,1.11,0.782,0.05,0.0332,0.993,0.627,0.0302,0.0195,0.954
NCI-H661,0.907,,0.919,0.55,0.321,1.04,1.03,1.01,0.559,0.219,0.578,0.749,0.94,0.455,0.197,1.1,1.16,0.82,0.269,1.03
NCI-H727,0.467,,0.264,0.252,0.208,0.809,0.694,0.93,0.603,0.169,0.586,0.54,0.529,0.377,0.167,0.774,0.91,0.155,0.0951,0.864
NCI-H838,0.31,0.26,0.242,0.25,0.118,1,1,1.17,0.165,0.13,1.02,1.13,0.884,0.749,0.139,0.822,0.916,0.348,0.123,0.811
NCI-H1355,0.744,0.644,0.682,0.47,0.129,0.944,0.983,0.998,0.155,0.14,0.863,0.859,0.683,0.605,0.192,1.02,0.788,0.275,0.139,1.06
NCI-H1437,1.11,1.13,1.13,0.996,0.53,1.31,1.24,1.32,0.185,0.149,1.02,1.01,0.881,0.972,0.285,0.966,0.92,0.0811,0.0914,0.894
NCI-H1563,0.498,0.554,0.537,0.553,0.434,0.874,0.966,0.803,0.526,0.475,0.896,0.893,0.782,0.555,0.392,0.894,0.732,0.522,0.443,0.902
